Results from patent US20240294531A1, “COVALENT HETEROCYCLES AND USES THEREOF” (Kumquat Biosciences Inc., priority 2022, published 2024).

Assays:
[1] = Intrinsic reactivity assay; type: physicochemical; settings: pH 7.4, 37° C., suitably protected Cys-OMe
From the text: Understanding of the intrinsic reactivity of electrophilic warheads with nucleophilic molecules is an important parameter influencing the stability of a compound in biological matrices. Lower intrinsic reactivity also mitigates the risk of covalent off-target reactivity. A common target residue for covalent drugs is cysteine, an amino acid containing a nucleophilic thiol side chain. The assay described here measures the rate of a compound forming a covalent bond with Boc-protected cysteine methyl ester or cysteine methyl ester that can be used as a surrogate for cysteines found on proteins.
Test compounds are prepared as 10 mM stock solutions in DMSO (Fisher cat #BP231-100). Compounds with molecular weight differing more than 3 Dalton are pooled and diluted to 5 μM in 100 mM potassium phosphate buffer, pH 7.4, containing 50 mM Boc-protected cysteine methyl ester (Combi-Blocks cat #QH-3424). Compounds incubated without Boc-protected cysteine methyl ester serve as controls. The reactions are incubated at 37° C., and reaction aliquots at different time intervals are sampled from the reaction and quenched with formic acid for subsequent LC-MS/MS analysis.
The LC-MS/MS analysis is done using a LC-40D×3 pump and SIL-40C×3 autosampler (Shimadzu) coupled to a QTRAP 6500+ (Sciex). Compounds are separated on a XBridge Premier BEH column (Waters). The sample run time is about 4 minutes per injection. The normalized peak area for each compound is extracted from the mass spectrometry raw files, and the data for each compound are plotted against time in Prism version 9.4 (GraphPad). Nonlinear regression using one-phase decay is used to estimate the rate of covalent bond formation with Boc-protected cysteine methyl ester or cysteine methyl ester and parent compound half-life (t½).

MGLL = MGLL (Homo sapiens (Human), UniProt Q99685, K36A/L169S/L176S); test: MGLL compound modification assay (intact protein LC-MS); type: binding; settings: at 4 hours; compound concentration of 3 μM
Sequence of MGLL (Q99685 whole entry K36A/L169S/L176S): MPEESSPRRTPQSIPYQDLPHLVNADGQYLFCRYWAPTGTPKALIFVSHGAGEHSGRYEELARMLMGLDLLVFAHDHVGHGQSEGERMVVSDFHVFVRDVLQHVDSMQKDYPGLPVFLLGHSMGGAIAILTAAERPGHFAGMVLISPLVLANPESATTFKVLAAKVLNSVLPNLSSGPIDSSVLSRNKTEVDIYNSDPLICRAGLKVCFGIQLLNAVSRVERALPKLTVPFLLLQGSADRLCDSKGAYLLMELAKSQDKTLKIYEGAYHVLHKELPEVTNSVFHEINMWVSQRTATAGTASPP
Procedure: Test compounds were prepared as 10 mM stock solutions in DMSO (Fisher cat #BP231-100). Human recombinant MGLL protein 1-303 containing K36A, L169S, L176S amino acid substitutions were produced at in house. On the day of the assay, MGLL protein was diluted to 2 μM in assay buffer (20 mM Hepes, pH 7.5, 150 mM NaCl, 1 mM MgCl2, 1 mM DTT). For testing MGLL modification, compounds were diluted to 50× final test concentration in DMSO in 96-well storage plates. […] of the diluted 50× compounds were added to appropriate wells in the PCR plate (Fisher cat #AB-0800). 49 μL of the stock protein solution was added to each well of the 96-well PCR plate to form a mixture. The plate was sealed well with aluminum plate seal and stored in a drawer at room temperature. […]
The extent of covalent modification of MGLL proteins was determined by liquid chromatography electrospray mass spectrometry analysis of the intact proteins using a Thermo Q-Exactive Plus mass spectrometer. […] The recorded protein mass spectrum was deconvoluted from the raw data file using Protein Deconvolution v4.0 (Thermo). […]
Certain compounds disclosed herein are expected to covalently modify MGLL protein when assessed using the assay described above by at least 1%, such as by at least 5%, 10%, 20%, 30%, 40%, or at least 50%.

BTK wildtype protein = BTK wildtype protein (Homo sapiens (Human), UniProt Q06187); test: BTK wildtype HTRF displacement assay; type: binding; settings: 1-hour incubation; read-out: BTK (wt) IC50
Sequence of BTK wildtype protein (Q06187 2-659): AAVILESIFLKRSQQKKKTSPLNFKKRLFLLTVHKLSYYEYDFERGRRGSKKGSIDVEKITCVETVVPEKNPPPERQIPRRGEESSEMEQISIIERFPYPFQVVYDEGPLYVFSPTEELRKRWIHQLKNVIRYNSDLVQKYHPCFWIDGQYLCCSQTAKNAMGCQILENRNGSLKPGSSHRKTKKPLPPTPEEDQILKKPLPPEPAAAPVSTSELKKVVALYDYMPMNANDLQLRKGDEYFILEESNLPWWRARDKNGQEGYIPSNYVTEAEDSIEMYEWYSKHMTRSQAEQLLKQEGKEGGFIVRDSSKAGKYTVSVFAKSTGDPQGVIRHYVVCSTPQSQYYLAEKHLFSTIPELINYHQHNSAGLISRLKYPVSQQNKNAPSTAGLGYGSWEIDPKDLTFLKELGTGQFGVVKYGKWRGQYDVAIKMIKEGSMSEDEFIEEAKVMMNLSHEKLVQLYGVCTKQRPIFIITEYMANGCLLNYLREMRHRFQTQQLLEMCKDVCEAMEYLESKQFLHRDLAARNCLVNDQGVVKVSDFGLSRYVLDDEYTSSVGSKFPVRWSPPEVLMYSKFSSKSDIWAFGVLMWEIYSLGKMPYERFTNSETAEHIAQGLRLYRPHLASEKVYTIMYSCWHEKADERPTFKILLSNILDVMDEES
Procedure, shortened: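 Tracer-displacement HTRF format: compound and tracer 239 compete at the BTK active site, detected via anti-GST-Tb on GST-tagged full-length enzyme. One-hour room-temperature incubation; compounds dosed at six four-fold steps down from 5 μM. Percent inhibition versus DMSO gives IC50 by constrained four-parameter logistic fit.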

BTK C481S protein = BTK C481S protein (Homo sapiens (Human), UniProt Q06187, C481S); test: BTK C481S HTRF displacement assay; type: binding; settings: 1-hour incubation
Sequence of BTK C481S protein (Q06187 2-659 C481S): as the sequence (Q06187 2-659) above, with C480S counted along it
Procedure, shortened: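 Tracer displacement read by HTRF after 1 hour at room temperature: GST-BTK C481S 2-659, 50 nM tracer 239 (Kd 54 nM), anti-GST antibody, compound in six four-fold doses from 5 μM. Percent inhibition versus DMSO fitted (bottom 0, top 100) for IC50, converted to KI via Cheng-Prusoff.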

CCN(C(=O)n1cncn1)C1CC1
K (min^−1), intrinsic rate constant [1]: <0.0005 min⁻¹

CCN(CC)C(=O)n1cncn1
K (min^−1), intrinsic rate constant [1]: <0.0005 min⁻¹

CC1CCCCN1C(=O)n1cncn1 (stereo not drawn)
K (min^−1), intrinsic rate constant [1]: <0.0005 min⁻¹

CN(C(=O)n1cncn1)C1CCC(n2nc(-c3ccc(Oc4ccccc4)cc3)c3c(N)ncnc32)CC1 (stereo not drawn) [Compound 133, N-(4-(4-amino-3-(4-phenoxyphenyl)-1H-pyrazolo[3,4-d]pyrimidin-1-yl)cyclohexyl)-N-methyl-1H-1,2,4-triazole-1-carboxamide]
% MGLL protein modification (MGLL): over 50%
IC50 (BTK wildtype protein): ≤ 1000 nM
IC50 (BTK C481S protein): ≤ 1000 nM
